Among the data in US7700622B2, “p-38 kinase inhibitors” (Novartis AG, priority 2003, dated 2010) are IC50 values, retold here.

Structures are written as SMILES.

This assay deals with T1, p38α kinase (Homo sapiens, UniProt Q16539).
T1 construct: purchased Upstate
The assay can be described thus: p38α assay (coupled ADP/NADH oxidation kinase assay). The class given is biochemical. Details: scale not given here. The settings on record: 60 min preincubation with p38α, 0.15 mM ATP, 37° C.; read-out: Activity (p-38) IC50. The method, then: cDNAs of human p38α and β were cloned by PCR. The α and β cDNAs were subcloned into DEST2 plasmid (Gateway, InVitrogen). His6-p38 fusion protein was expressed in E. coli and purified from bacterial lysates by affinity chromatography using Ni^+2-NTA-agarose. His6-p38 protein was activated by incubating with constitutively active MKK6. Active p38 was separated from MKK6 by affinity chromatography. Constitutively active MKK6 was generated in a manner similar to Raingeaud et al. [Mol. Cell.
The p38α assay employed is based on measurement of ADP released in the reaction of interest through NADH oxidation obtained by coupling with pyruvate kinase and lactate dehydrogenase reactions. The assays were performed in 384-well UV-plates. The final volume was 25 uL prepared from the addition of 2.5 uL compound dissolved in 10% DMSO, 17.5 uL of assay buffer and 5 uL of ATP. […] Test compounds are preincubated with p38α for 60 min and the reaction started by addition of ATP to 0.15 mM final concentration. Reaction rates were measured at 340 nm using SpectraMax plate-reading spectrophotometer for 10 min at 37° C. Inhibition data were analyzed by non-linear least squares regression using SigmaPlot.

In general, IC50 refers to the concentration that gives 50% inhibition.

T1 sequence (Q16539 whole entry): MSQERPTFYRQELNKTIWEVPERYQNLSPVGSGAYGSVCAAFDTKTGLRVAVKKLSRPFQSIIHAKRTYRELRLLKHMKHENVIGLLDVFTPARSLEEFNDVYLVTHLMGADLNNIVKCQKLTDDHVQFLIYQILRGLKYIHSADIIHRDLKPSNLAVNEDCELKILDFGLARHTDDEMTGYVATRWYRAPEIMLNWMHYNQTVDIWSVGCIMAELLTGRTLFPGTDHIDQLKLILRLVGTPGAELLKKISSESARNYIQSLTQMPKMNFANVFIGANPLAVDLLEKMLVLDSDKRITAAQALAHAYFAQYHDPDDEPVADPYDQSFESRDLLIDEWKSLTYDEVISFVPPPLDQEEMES

Turning to `Cc1ccc(C(=O)NC2CC2)cc1-c1ccc(-c2nnco2)cc1` [Example 1, 6-Methyl4′-[1,3,4]oxadiazol-2-yl-biphenyl-3-carboxylic acid cyclopropylamide], the IC50 is under 1000 nM.

As to `Cc1ccc(C(=O)NC2CC2)cc1-c1ccc(-c2nnc[nH]2)cc1` [Example 3, 6-Methyl4′-(4H-[1,2,4]triazol-3-yl)-biphenyl-3-carboxylic acid cyclopropylamide], the IC50 was under 1000 nM.

Turning to `Cc1ccc(C(=O)NC2CC2)cc1-c1ccc(-c2nnco2)cn1` [Example 4, N-Cyclopropyl-4-methyl-3-(5-[1,3,4]oxadiazol-2-yl-pyridin-2-yl)-benzamide], the IC50 is under 1000 nM. The result for `Cc1nnc(-c2ccc(-c3cc(C(=O)NC4CC4)ccc3C)nc2)o1` [Example 5, N-Cyclopropyl-4-methyl-3-[5-(5-methyl-[1,3,4]oxadiazol-2-yl)-pyridin-2-yl]-benzamide] reads under 1000 nM; that for `Cc1ccc(C(=O)NC2CC2)cc1-c1ccc2c(=O)n(Cc3ccccc3)cnc2c1` [Example 6, 3-(3-Benzyl-4-oxo-3,4-dihydro-quinazolin-7-yl)-N-cyclopropyl-4-methyl-benzamide], under 1000 nM. As to `Cc1ccc(C(=O)NC2CC2)cc1-c1ccc2c(=O)n(Cc3c(Cl)cccc3Cl)cnc2c1` [Example 7, N-Cyclopropyl-3-[3-(2,6-dichloro-benzyl)-4-oxo-3,4-dihydro-quinazolin-7-yl]-4-methyl-benzamide], the IC50 was under 1000 nM. Turning to `Cc1ccc(C(=O)NC2CC2)cc1-c1ccc2c(=O)n(Cc3ccc(Cl)c(Cl)c3)cnc2c1` [Example 8, N-Cyclopropyl-3-[3-(3,4-dichloro-benzyl)-4-oxo-3,4-dihydro-quinazolin-7-yl]-4-methyl-benzamide], the IC50 is under 1000 nM. As to `COc1ccc(Cn2cnc3cc(-c4cc(C(=O)NC5CC5)ccc4C)ccc3c2=O)cc1` [Example 9, N-Cyclopropyl-3-[3-(4-methoxy-benzyl)-4-oxo-3,4-dihydro-quinazolin-7-yl]-4-methyl-benzamide], the IC50 is under 1000 nM. Turning to `Cc1ccc(C(=O)NC2CC2)cc1-c1ccc2c(=O)[nH]cnc2c1` [Example 10, N-Cyclopropyl-4-methyl-3-(4-oxo-3,4-dihydro-quinazolin-7-yl)-benzamide], the IC50 was under 1000 nM. In the case of `Cc1ccc(C(=O)NC2CC2)cc1-c1ccc(C(=O)c2ccccc2)cc1` [Example 11, 4′-Benzoyl-6-methyl-biphenyl-3-carboxylic acid cyclopropylamide], the IC50 is under 1000 nM. In the case of `COc1ccc(CNC(=O)c2ccc(-c3cc(C(=O)NC4CC4)ccc3C)nc2)cc1` [Example 12, 6-(5-Cyclopropylcarbamoyl-2-methyl-phenyl)-N-(4-methoxy-benzyl)-nicotinamide], the IC50 was under 1000 nM.

On to `COc1ccc(CNC(=O)c2cnc(-c3cc(C(=O)NC4CC4)ccc3C)nc2N)cc1` [Example 13, N-(4-Methoxybenzyl)-2-[(5-cyclopropylaminocarbonyl)-2-methylphenyl]-4-aminopyrimidine-5-carboxyamide], for which the IC50 is under 1000 nM.

For the compound `Cc1ccc(C(=O)NC2CC2)cc1-c1ccc(C(=O)c2ccccc2)c(N)c1` [Example 14, 3′-Amino-4′-benzoyl-6-methyl-biphenyl-3-carboxylic acid cyclopropylamide], the IC50 is under 1000 nM. With `Cc1ccc(C(=O)NC2CC2)cc1-c1ccc2c(-c3ccccc3)nc(=O)[nH]c2c1` [Example 15, N-Cyclopropyl-4-methyl-3-(2-oxo-4-phenyl-1,2-dihydro-quinazolin-7-yl)-benzamide], the IC50 is under 1000 nM.

In the case of `Cc1ccc(C(=O)NC2CC2)cc1-c1ccc2c(-c3ccccc3)ncnc2c1` [Example 16, N-Cyclopropyl-4-methyl-3-(4-phenyl-quinazolin-7-yl)-benzamide], the IC50 was under 1000 nM.

Regarding `CC(=O)Nc1cc(-c2cc(C(=O)NC3CC3)ccc2C)ccc1C(=O)c1ccccc1` [Example 17, 3′-Acetylamino4′-benzoyl-6-methyl-biphenyl-3-carboxylic acid cyclopropylamide], the IC50 was under 1000 nM.
